Measured values: ChEMBL document CHEMBL5634117 (Eur J Med Chem, 2023)
Active and inactive are the calls of the source. No cut-off for these calls is given here.

Assays:
[1] = target: T1, Mitogen-activated protein kinase 8 (Homo sapiens, UniProt P45983); assay: Inhibition of human JNK1 at 10 uM in presence of ATP relative to control
[2] = target: T2, Mitogen-activated protein kinase 9 (Homo sapiens, UniProt P45984); assay: Inhibition of human JNK2 at 10 uM in presence of ATP relative to control
Target sequence in this assay (P45984 whole entry, looked up): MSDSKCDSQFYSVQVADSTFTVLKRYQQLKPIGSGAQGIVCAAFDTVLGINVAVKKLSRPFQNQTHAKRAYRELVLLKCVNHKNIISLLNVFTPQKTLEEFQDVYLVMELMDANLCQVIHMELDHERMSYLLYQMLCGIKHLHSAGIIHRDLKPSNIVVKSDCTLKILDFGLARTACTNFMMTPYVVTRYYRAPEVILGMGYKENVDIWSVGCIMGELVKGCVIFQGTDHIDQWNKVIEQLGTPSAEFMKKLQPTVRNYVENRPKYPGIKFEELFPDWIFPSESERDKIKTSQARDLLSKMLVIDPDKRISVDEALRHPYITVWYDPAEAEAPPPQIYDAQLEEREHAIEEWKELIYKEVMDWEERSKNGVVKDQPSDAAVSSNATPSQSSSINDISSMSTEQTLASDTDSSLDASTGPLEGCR

K562 [3] = assay: Induction of cell cycle arrest in human K562 cells assessed as accumulation of cells at G2/M phase at 5 uM measured after 24 hrs by PI staining based flow cytometry analysis (reference value: 25.62%); format: functional
[4] = target: T3, Mitogen-activated protein kinase 10 (Homo sapiens, UniProt P53779); assay: Inhibition of human JNK3 at 10 uM in presence of ATP relative to control
T3 sequence (P53779 whole entry): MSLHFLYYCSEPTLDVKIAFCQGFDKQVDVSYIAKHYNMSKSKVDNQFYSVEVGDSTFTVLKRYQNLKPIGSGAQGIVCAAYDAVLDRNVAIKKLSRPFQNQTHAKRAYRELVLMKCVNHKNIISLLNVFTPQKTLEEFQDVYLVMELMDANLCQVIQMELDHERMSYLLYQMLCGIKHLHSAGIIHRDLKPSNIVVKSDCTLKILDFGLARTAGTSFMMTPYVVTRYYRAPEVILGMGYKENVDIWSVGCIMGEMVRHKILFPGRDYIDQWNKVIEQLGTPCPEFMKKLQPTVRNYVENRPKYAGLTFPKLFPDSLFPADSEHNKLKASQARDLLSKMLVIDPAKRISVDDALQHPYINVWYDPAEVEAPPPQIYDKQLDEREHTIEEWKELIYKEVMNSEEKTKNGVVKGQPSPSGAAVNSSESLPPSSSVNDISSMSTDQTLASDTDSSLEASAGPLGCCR

K562 [5] = assay: Induction of apoptosis in human K562 cells assessed as early apoptotic cells at 5 uM incubated for 24 hrs by annexinV and propidium iodide staining based flow cytometry analysis (reference value: 1.17%); format: functional
K562 [6] = assay: Induction of autophagy in human K562 cells assessed as increase in beclin-1 level at 2.5 to 5 uM measured after 24 hrs by Western blotting analysis; format: functional, cell-based; conditions: dose 2.5-5 µM
K562 [7] = assay: Induction of apoptosis in human K562 cells assessed as late apoptotic cells at 2.5 uM incubated for 24 hrs by annexinV and propidium iodide staining based flow cytometry analysis (reference value: 0.82%); format: functional
K562 [8] = assay: Induction of cell cycle arrest in human K562 cells assessed as accumulation of cells at G0/G1 phase at 2.5 uM measured after 24 hrs by PI staining based flow cytometry analysis (reference value: 46.72%); format: functional
K562 [9] = assay: Induction of cell cycle arrest in human K562 cells assessed as accumulation of cells at SubG1 phase at 2.5 uM measured after 24 hrs by PI staining based flow cytometry analysis (reference value: 2.21%); format: functional
K562 [10] = assay: Induction of cell cycle arrest in human K562 cells assessed as accumulation of cells at S phase at 5 uM measured after 24 hrs by PI staining based flow cytometry analysis (reference value: 24.75%); format: functional
K562 [11] = assay: Induction of cell cycle arrest in human K562 cells assessed as accumulation of cells at G0/G1 phase at 5 uM measured after 24 hrs by PI staining based flow cytometry analysis (reference value: 46.72%); format: functional
[12] = target: T1, Mitogen-activated protein kinase 8; assay: Inhibition of JNK1 (unknown origin) expressed in HEK293 cells assessed as target engagement incubated for 1 hr by NanoBRET assay; format: cell-based
K562 [13] = assay: Induction of apoptosis in human K562 cells assessed as late apoptotic cells at 1.25 uM incubated for 24 hrs by annexinV and propidium iodide staining based flow cytometry analysis (reference value: 0.82%); format: functional
K562 [14] = assay: Induction of cell cycle arrest in human K562 cells assessed as accumulation of cells at SubG1 phase at 5 uM measured after 24 hrs by PI staining based flow cytometry analysis (reference value: 2.21%); format: functional
K562 [15] = assay: Induction of apoptosis in human K562 cells assessed as early apoptotic cells at 2.5 uM incubated for 24 hrs by annexinV and propidium iodide staining based flow cytometry analysis (reference value: 1.17%); format: functional
[16] = target: T3, Mitogen-activated protein kinase 10; assay: Inhibition of human JNK3 in presence of ATP
K562 [17] = assay: Induction of cell cycle arrest in human K562 cells assessed as accumulation of cells at G0/G1 phase at 1.25 uM measured after 24 hrs by PI staining based flow cytometry analysis (reference value: 46.72%); format: functional
Cytochrome P450 2D6 = Cytochrome P450 2D6 (Homo sapiens, UniProt P10635); assay: Inhibition of CYP2D6 (unknown origin) using vivid EOMCC as substrate; format: ADME
Sequence of Cytochrome P450 2D6 (P10635 whole entry): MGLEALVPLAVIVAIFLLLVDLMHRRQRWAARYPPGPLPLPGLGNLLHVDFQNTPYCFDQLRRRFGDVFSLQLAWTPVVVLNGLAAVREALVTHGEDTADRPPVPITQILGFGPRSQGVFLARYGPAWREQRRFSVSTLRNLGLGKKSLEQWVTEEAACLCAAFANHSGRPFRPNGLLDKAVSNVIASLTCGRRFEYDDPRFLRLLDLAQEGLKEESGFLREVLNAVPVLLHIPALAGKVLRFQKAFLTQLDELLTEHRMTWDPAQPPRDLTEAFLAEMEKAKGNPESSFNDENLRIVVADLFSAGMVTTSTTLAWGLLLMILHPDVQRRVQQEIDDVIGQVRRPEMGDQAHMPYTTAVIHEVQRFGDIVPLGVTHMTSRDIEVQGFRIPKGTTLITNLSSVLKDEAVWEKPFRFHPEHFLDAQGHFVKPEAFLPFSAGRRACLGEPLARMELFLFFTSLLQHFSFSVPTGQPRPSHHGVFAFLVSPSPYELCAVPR

K562 [18] = assay: Induction of cell cycle arrest in human K562 cells assessed as accumulation of cells at S phase at 2.5 uM measured after 24 hrs by PI staining based flow cytometry analysis (reference value: 24.75%); format: functional
K562 [19] = assay: Induction of cell cycle arrest in human K562 cells assessed as accumulation of cells at G2/M phase at 2.5 uM measured after 24 hrs by PI staining based flow cytometry analysis (reference value: 25.62%); format: functional
[20] = target: Voltage-gated inwardly rectifying potassium channel KCNH2 (Homo sapiens, UniProt Q12809); assay: Inhibition of human ERG; format: toxicity
Sequence of Voltage-gated inwardly rectifying potassium channel KCNH2 (Q12809 whole entry): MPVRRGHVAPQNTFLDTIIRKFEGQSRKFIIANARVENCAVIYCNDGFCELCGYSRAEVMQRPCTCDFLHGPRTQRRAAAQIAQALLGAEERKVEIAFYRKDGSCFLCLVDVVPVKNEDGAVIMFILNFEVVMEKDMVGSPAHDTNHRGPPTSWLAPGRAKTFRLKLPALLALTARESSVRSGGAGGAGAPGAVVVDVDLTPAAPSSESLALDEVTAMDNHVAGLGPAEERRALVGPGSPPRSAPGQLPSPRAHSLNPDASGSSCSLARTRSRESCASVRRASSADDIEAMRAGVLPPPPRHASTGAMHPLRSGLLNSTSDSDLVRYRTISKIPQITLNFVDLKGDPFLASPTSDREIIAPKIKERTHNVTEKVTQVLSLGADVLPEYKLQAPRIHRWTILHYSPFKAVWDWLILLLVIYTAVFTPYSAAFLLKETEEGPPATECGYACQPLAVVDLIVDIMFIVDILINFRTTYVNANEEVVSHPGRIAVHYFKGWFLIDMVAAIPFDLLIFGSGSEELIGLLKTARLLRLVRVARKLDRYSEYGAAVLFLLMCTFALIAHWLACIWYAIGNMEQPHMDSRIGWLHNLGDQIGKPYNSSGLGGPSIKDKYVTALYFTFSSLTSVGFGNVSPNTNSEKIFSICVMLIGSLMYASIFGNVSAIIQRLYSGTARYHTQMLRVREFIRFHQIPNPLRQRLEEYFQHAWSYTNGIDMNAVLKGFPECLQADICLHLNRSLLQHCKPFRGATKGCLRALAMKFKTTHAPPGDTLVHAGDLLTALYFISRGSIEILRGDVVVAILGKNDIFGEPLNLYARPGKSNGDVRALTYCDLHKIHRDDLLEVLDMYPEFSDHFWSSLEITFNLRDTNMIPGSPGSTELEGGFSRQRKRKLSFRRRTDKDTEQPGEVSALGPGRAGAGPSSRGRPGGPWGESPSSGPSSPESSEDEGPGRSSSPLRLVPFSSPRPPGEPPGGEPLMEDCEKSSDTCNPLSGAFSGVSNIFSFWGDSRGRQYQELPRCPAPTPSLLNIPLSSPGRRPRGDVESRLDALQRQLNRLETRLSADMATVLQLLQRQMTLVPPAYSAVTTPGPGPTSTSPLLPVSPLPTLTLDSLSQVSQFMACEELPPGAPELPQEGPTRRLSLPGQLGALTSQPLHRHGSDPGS

Cytochrome P450 3A4 = Cytochrome P450 3A4 (Homo sapiens, UniProt P08684); assay: Inhibition of CYP3A4 (unknown origin) using vivid BOMCC as substrate; format: ADME
Sequence of Cytochrome P450 3A4 (P08684 whole entry): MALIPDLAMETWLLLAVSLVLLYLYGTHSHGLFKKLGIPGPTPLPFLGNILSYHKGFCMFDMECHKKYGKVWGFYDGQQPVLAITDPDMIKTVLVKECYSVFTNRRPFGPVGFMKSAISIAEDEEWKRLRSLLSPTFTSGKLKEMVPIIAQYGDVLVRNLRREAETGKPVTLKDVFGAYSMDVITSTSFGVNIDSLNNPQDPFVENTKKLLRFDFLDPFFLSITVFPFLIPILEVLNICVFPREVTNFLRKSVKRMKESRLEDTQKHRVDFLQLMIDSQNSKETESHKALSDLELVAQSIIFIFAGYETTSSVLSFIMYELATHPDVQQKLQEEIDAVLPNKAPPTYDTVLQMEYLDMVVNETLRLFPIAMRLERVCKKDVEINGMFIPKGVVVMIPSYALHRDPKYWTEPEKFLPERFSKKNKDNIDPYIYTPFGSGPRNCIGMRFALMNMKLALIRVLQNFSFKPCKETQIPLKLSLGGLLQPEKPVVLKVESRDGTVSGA

K562 [21] = assay: Induction of apoptosis in human K562 cells assessed as early apoptotic cells at 1.25 uM incubated for 24 hrs by annexinV and propidium iodide staining based flow cytometry analysis (reference value: 1.17%); format: functional
K562 [22] = assay: Induction of apoptosis in human K562 cells assessed as late apoptotic cells at 5 uM incubated for 24 hrs by annexinV and propidium iodide staining based flow cytometry analysis (reference value: 0.82%); format: functional
K562 [23] = assay: Induction of cell cycle arrest in human K562 cells assessed as accumulation of cells at G2/M phase at 1.25 uM measured after 24 hrs by PI staining based flow cytometry analysis (reference value: 25.62%); format: functional
K562 [24] = assay: Induction of cell cycle arrest in human K562 cells assessed as accumulation of cells at S phase at 1.25 uM measured after 24 hrs by PI staining based flow cytometry analysis (reference value: 24.75%); format: functional
[25] = target: T1, Mitogen-activated protein kinase 8; assay: Inhibition of human JNK1 in presence of ATP
K562 [26] = assay: Induction of cell cycle arrest in human K562 cells assessed as accumulation of cells at SubG1 phase at 1.25 uM measured after 24 hrs by PI staining based flow cytometry analysis (reference value: 2.21%); format: functional
[27] = target: T2, Mitogen-activated protein kinase 9; assay: Inhibition of human JNK2 in presence of ATP
Target sequence in this assay (P45984 whole entry): as the sequence (P45984 whole entry, looked up) above

T1 sequence (P45983 whole entry): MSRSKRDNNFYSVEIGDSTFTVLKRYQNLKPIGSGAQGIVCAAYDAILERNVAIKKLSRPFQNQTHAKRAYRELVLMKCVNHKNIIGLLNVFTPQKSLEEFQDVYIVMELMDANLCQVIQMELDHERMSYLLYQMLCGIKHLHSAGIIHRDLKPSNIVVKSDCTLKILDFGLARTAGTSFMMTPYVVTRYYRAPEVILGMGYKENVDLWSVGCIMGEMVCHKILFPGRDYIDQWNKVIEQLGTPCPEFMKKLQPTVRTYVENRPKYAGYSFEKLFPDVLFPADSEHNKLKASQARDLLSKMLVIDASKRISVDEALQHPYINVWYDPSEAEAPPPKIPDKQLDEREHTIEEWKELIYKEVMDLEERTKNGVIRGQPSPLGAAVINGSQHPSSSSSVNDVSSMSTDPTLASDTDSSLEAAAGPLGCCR

COc1ccc(S(=O)(=O)NCCNc2cc(-c3cn(C(C)(C)C)nc3-c3cccc(OC)c3)ccn2)cc1
inhibition [1]: 9.82%

COc1cccc(-c2nn(C(C)(C)C)cc2-c2ccnc(NCCNS(=O)(=O)c3ccc(F)cc3)c2)c1
inhibition [1]: 3.91%

COc1cccc(-c2nn(C(C)(C)C)cc2-c2ccnc(NCCCNS(=O)(=O)c3ccc(Cl)cc3)c2)c1
inhibition [2]: 68.2%
inhibition [1]: 79.6%

CC(C)(C)n1cc(-c2ccnc(NCCNS(=O)(=O)c3ccccc3)c2)c(-c2cccc(O)c2)n1
inhibition [1]: 81.8%

COc1cccc(-c2nn(C(C)(C)C)cc2-c2ccnc(NCCCNS(=O)(=O)c3ccccc3)c2)c1
inhibition [1]: 38.8%

CC(C)(C)n1cc(-c2ccnc(NCCNS(=O)(=O)c3ccc(Br)cc3)c2)c(-c2cccc(O)c2)n1
inhibition [1]: 74%

CC(C)(C)n1cc(-c2ccnc(NCCNS(=O)(=O)c3ccc(Cl)cc3)c2)c(-c2cccc(O)c2)n1
inhibition [1]: 78.7%

COc1cccc(-c2nn(C(C)(C)C)cc2-c2ccnc(NCCCNS(=O)(=O)c3ccc(C(F)(F)F)cc3)c2)c1
inhibition [1]: 13.2%

COc1cccc(-c2nn(C(C)(C)C)cc2-c2ccnc(NCCNS(=O)(=O)c3ccc(C)cc3)c2)c1
inhibition [1]: 4.68%

COc1ccc(S(=O)(=O)NCCCNc2cc(-c3cn(C(C)(C)C)nc3-c3cccc(O)c3)ccn2)cc1
Activity (K562 [3]): 98.97%
inhibition [4]: 98%
Activity (K562 [5]): 2.14%
Activity (K562 [6]): Active
Activity (K562 [7]): 0.73%
Activity (K562 [8]): 6.24%
Activity (K562 [9]): 0.34%
Activity (K562 [10]): 0.34%
Activity (K562 [11]): 0.17%
inhibition [2]: 98.5%
IC50 [12]: 2810 nM
Activity (K562 [13]): 0.52%
Activity (K562 [14]): 0.09%
Activity (K562 [15]): 1.94%
IC50 [16]: 10.5 nM
Activity (K562 [17]): 19.83%
IC50 (Cytochrome P450 2D6): 26.7 nM
Activity (K562 [18]): 29.83%
inhibition [1]: 99.6%
Activity (K562 [19]): 62.99%
IC50 [20]: 4820 nM
IC50 (Cytochrome P450 3A4): 383 nM
Activity (K562 [21]): 1.89%
Activity (K562 [22]): 0.59%
Activity (K562 [23]): 45.33%
Activity (K562 [24]): 32.54%
IC50 [25]: 1.81 nM
Activity (K562 [26]): 1.34%
IC50 [27]: 12.7 nM

COc1cccc(-c2nn(C(C)(C)C)cc2-c2ccnc(NCCNS(=O)(=O)c3ccc(Br)cc3)c2)c1
inhibition [1]: -6.18%

CC(C)(C)n1cc(-c2ccnc(NCCCNS(=O)(=O)c3ccc(F)cc3)c2)c(-c2cccc(O)c2)n1
inhibition [4]: 98.5%
inhibition [2]: 98.9%
IC50 [16]: 10.1 nM
inhibition [1]: 96.8%
IC50 [25]: 3.5 nM
IC50 [27]: 19.8 nM

CC(C)(C)n1cc(-c2ccnc(NCCNS(=O)(=O)c3ccc(F)cc3)c2)c(-c2cccc(O)c2)n1
inhibition [1]: 87.2%

CCNC1CCNC1 (centres undefined)
IC50 [20]: 12.8 nM

Cc1ccc(S(=O)(=O)NCCNc2cc(-c3cn(C(C)(C)C)nc3-c3cccc(O)c3)ccn2)cc1
inhibition [1]: 85.8%

COc1cccc(-c2nn(C(C)(C)C)cc2-c2ccnc(NCCCNS(=O)(=O)c3ccc(F)cc3)c2)c1
inhibition [1]: 41.4%

COc1cccc(-c2nn(C(C)(C)C)cc2-c2ccnc(NCCCNS(=O)(=O)c3ccc(Br)cc3)c2)c1
inhibition [2]: 57.7%
inhibition [1]: 73.7%

COc1cccc(-c2nn(C(C)(C)C)cc2-c2ccnc(NCCNS(=O)(=O)c3ccc(Cl)cc3)c2)c1
inhibition [1]: 0.99%

CC(C)(C)n1cc(-c2ccnc(NCCNS(=O)(=O)c3cccc4ccccc34)c2)c(-c2cccc(O)c2)n1
inhibition [1]: 63.7%

COc1cccc(-c2nn(C(C)(C)C)cc2-c2ccnc(NCCNS(=O)(=O)c3ccccc3)c2)c1
inhibition [1]: 3.74%

COc1cccc(-c2nn(C(C)(C)C)cc2-c2ccnc(NCCCNS(=O)(=O)c3cccc(F)c3)c2)c1
inhibition [1]: 29.9%

CC(C)(C)n1cc(-c2ccnc(NCCCNS(=O)(=O)c3cccc(F)c3)c2)c(-c2cccc(O)c2)n1
inhibition [4]: 98.2%
inhibition [2]: 98.5%
inhibition [1]: 98.4%
IC50 [25]: 6.81 nM

CC(C)(C)n1cc(-c2ccnc(NCCNS(=O)(=O)c3ccc(C(F)(F)F)cc3)c2)c(-c2cccc(O)c2)n1
inhibition [1]: 66.6%

COc1ccc(S(=O)(=O)NCCCNc2cc(-c3cn(C(C)(C)C)nc3-c3cccc(OC)c3)ccn2)cc1
inhibition [1]: 49.2%

CC(C)(C)n1cc(-c2ccnc(NCCCNS(=O)(=O)c3ccccc3)c2)c(-c2cccc(O)c2)n1
inhibition [4]: 99.1%
inhibition [2]: 98.5%
IC50 [16]: 20.2 nM
inhibition [1]: 99.4%
IC50 [25]: 3.75 nM
IC50 [27]: 23.1 nM

Cc1ccc(S(=O)(=O)NCCCNc2cc(-c3cn(C(C)(C)C)nc3-c3cccc(O)c3)ccn2)cc1
inhibition [4]: 98.2%
inhibition [2]: 98.8%
inhibition [1]: 97%
IC50 [25]: 15.1 nM

CC(C)(C)n1cc(-c2ccnc(NCCNS(=O)(=O)c3cccc(F)c3)c2)c(-c2cccc(O)c2)n1
inhibition [1]: 86.4%

COc1cccc(-c2nn(C(C)(C)C)cc2-c2ccnc(NCCCNS(=O)(=O)c3ccc(C)cc3)c2)c1
inhibition [1]: 37.8%

COc1ccc(S(=O)(=O)NCCNc2cc(-c3cn(C(C)(C)C)nc3-c3cccc(O)c3)ccn2)cc1
inhibition [4]: 96.2%
inhibition [2]: 94.4%
inhibition [1]: 90.6%
IC50 [25]: 55.8 nM

COc1cccc(-c2nn(C(C)(C)C)cc2-c2ccnc(NCCCNS(=O)(=O)c3cccc4ccccc34)c2)c1
inhibition [1]: 21.3%
